Legend:
[1] = Apparent pKa of lipid nanoparticles using TNS; settings: lipid nanoparticles encapsulating mRNA prepared with the lipid, 37° C.
Protocol: The apparent acid dissociation constant pKa of the lipid membrane of a lipid nanoparticle is measured in a buffer at 37° C. using 6-p-toluidino-2-naphthalenesulfonic acid (TNS) (see Examples).
The apparent pKa of the lipid nanoparticles was also measured using 6-p-toluidino-2-naphthalenesulfonic acid (TNS) (see NPL 14). Specifically, in each well of a 96-well plate, lipid (0.5 mM) of the lipid nanoparticles and TNS (0.6 mM) were added to 200 μL of a buffer solution and mixed. The buffer solution was 20 mM citrate buffer (pH3.50 to 5.50), 20 mM sodium phosphate buffer (pH6.00 to 8.00), or 20 mM Tris-HCl buffer (pH8.00 to 9.00), and each buffer solution contained 150 mM NaCl. At this time, the final concentration of lipid was adjusted to 30 µM and the final concentration of TNS was adjusted to 6 μM. Fluorescence (excitation wavelength 321 nm, fluorescence wavelength 447 nm) was then measured at 37° C. using a plate reader (Enspire 2300 multilabel reader, Perkin Elmer). The pKa was defined as the pH value showing 50% of the maximum fluorescence intensity. • [NPL 14]

[2] = system: activated hepatic stellate cell line LX-2; assay: EGFP mRNA delivery and transfection screening by FACS; format: cell-based; settings: LX-2 cells; EGFP mRNA lipid nanoparticles, 250 ng mRNA per well
Protocol: Fourteen types of lipid nanoparticles prepared were screened with activated hepatic stellate cell line LX-2 (Merck (Germany) and hepatocyte line FL83B (ATCC, USA).
Twenty-four hours prior to the experiment, cells were seeded in 6-well plates at 1×10^5 cells/well and incubated at 37° C. The medium was aspirated and the cells were washed with (−) PBS and then treated with lipid nanoparticles encapsulating EGFP mRNA (TriLink BioTechnologies, USA) in 1.5 ml of growth medium for 24 hours. The amount of mRNA per well was 250 ng. Cells were then washed with (−) PBS and incubated in fresh medium for an additional 21 hours. The median fluorescence intensity of EGFP and the percentage of transfected cells were evaluated by fluorescence activated cell sorting (FACS) using a flow cytometer (Cytoflex, Beckman Coulter, USA).

[3] = Average particle size, PDI, zeta potential (dynamic light scattering) and RNA encapsulation efficiency (RiboGreen) of lipid nanoparticles; format: physicochemical; settings: CL15H6 lipid nanoparticles with SMO-siRNA
Protocol: The average particle size, particle size distribution, and zeta potential of the lipid nanoparticles were measured using a Zetasizer Nano ZS (Malvern Instruments Ltd, UK) by dynamic light scattering and the form of lipid nanoparticle was measured using a transmission electron-microscope as described in NPL 12. The efficiency of mRNA encapsulation was estimated by RiboGreen fluorometry as described in NPL 13. Although the respective values vary depending on the type of pH-sensitive cationic lipid, the composition of the lipids constituting the lipid nanoparticles, the preparation conditions of the lipid nanoparticles, and the like, the average particle size of the lipid nanoparticles was in the range of 80 to 350 nm, the PDI was in the range of 0.05 to 0.4, the zeta potential was in the range of −16 to +5 mV, and the efficiency of mRNA encapsulation was 75 to 95%. • [NPL 12] Mahmoud A. Younis, et al., “A Multifunctional Lipid-Based Nanodevice for the Highly Specific Codelivery of Sorafenib and Midkine siRNA to Hepatic Cancer Cells”, Molecular Pharmaceutics, Vol. 16, pp. 4031-4044 • [NPL 13] Mahmoud M. Abd Elwakil, et al., “Engineered &-decalactone lipomers bypass the liver to selectively in vivo deliver mRNA to the lungs without targeting ligands”, Materials Horizons, Vol. 8, pp. 2251-2259
The average particle size, particle size distribution, and zeta potential of the lipid nanoparticles were measured in the same manner as in Example 1 to estimate the efficiency of SMO-siRNA encapsulation. The relationship between the flow rate ratio of the aqueous phase to the organic phase, the average particle size, particle size distribution, zeta potential, and SMO-siRNA encapsulation efficiency of the lipid nanoparticles prepared at the same flow rate ratio when CL15H6 was used as the pH-sensitive cationic lipid is shown in Table 3 below. In the subsequent experiments, lipid nanoparticles were prepared at a ratio of 4:1 (aqueous phase: organic phase), which provided the highest encapsulation efficiency, the smallest average particle size, and the smallest PDI.

SMO mRNA = assay: In vivo SMO mRNA knockdown in liver tissue by qRT-PCR; design: species or system mice; settings: 24 hours
Protocol: TAA-induced liver fibrosis model mice were prepared in the same manner as in Example 1, and SMO-siRNA-encapsulated lipid nanoparticles were intravenously administered to the mice via the tail vein so that the amount of RNA per kg of body weight was 0.5 mg/kg. 24 hours after the administration, the mouse livers were collected. The ratio of the amount of SMO mRNA to the amount of GAPDH mRNA in the liver tissue was confirmed by qRT-PCR. The SMO gene is expressed only in hepatic stellate cells in the liver.
Next, a lipid composition containing CL15H6 and SMO-siRNA were mixed in different ratios to prepare lipid nanoparticles with different nitrogen/phosphate (N/P) ratios. Specifically, lipid nanoparticles were prepared with N/P ratios of 0.5, 1, 2, 4, 8, 12, 16, and 20. The prepared lipid nanoparticles were intravenously administered to mice with liver fibrosis so that the amount of RNA per kg of body weight was 0.5 mg/kg, and the ratio of the amount of SMO mRNA to the amount of GAPDH mRNA in the liver tissue was confirmed 24 hours later.
Next, the relationship between the dosage amount of SMO-siRNA and the ratio of the amount of SMO mRNA to the amount of GAPDH mRNA in the liver tissue was examined. For comparison, the relationship between the dosage amount of control siRNA (siCtrl) and the ratio of SMO mRNA to GAPDH mRNA in hepatic stellate cells was also examined.
Lipid nanoparticles encapsulating a mixture of the above SMO-siRNA and TGFβ1-siRNA at a ratio of 1:1 were prepared by using CL15H6, the above SMO-siRNA (SEQ ID NOs: 1 and 2) targeting the mRNA of the SMO gene and the TGFβ1-siRNA (SEQ ID NOS: 3 and 4) targeting the mRNA of the TGFβ1 gene and having the sequence shown in Table 4 below. The prepared lipid nanoparticles were intravenously administered to mice with liver fibrosis so that each of the amounts of SMO-siRNA and of TGFβ1-siRNA per kg of body weight was 0.25 mg/kg, and 24 hours later, the ratios of the amounts of SMO mRNA and of TGFβ1 mRNA to the amount of GAPDH mRNA in the liver tissue was confirmed.

[4] = aqueous phase:organic phase 2:1
[5] = aqueous phase:organic phase 3:1
[6] = aqueous phase:organic phase 4:1
[7] = aqueous phase:organic phase 5:1
[8] = aqueous phase:organic phase 9:1

SMILES: CCCCCCCC/C=C\CCCCCCCC(=O)OCCCCCCC(O)(CCCCCCOC(=O)CCCCCCC/C=C\CCCCCCCC)CCCCN(CCC)CCC [CL4H6]
- Apparent pKa [1]: 6.25

SMILES: CCCCCCCC/C=C\CCCCCCCC(=O)OCCCCCCC(O)(CCCCCCOC(=O)CCCCCCC/C=C\CCCCCCCC)CCCCN(C)C [CL1H6, 7-(4-(dimethylamino)butyl)-7-hydroxytridecane-1,13-diyl dioleate]
- mRNA delivery efficiency (median fluorescence intensity of EGFP) [2]: high

SMILES: CCCCCCCCCCCCCCCC(=O)OCCCCCCC(O)(CCCCCCOC(=O)CCCCCCCCCCCCCCC)CCCCN(C)C [CL1D6, 7-(4-(dimethylamino)butyl)-7-hydroxytridecane-1,13-diyl dipalmitate]
- mRNA delivery efficiency (median fluorescence intensity of EGFP) [2]: high

SMILES: CCCCCCCC/C=C\CCCCCCCC(=O)OCCCCCCC(O)(CCCCCCOC(=O)CCCCCCC/C=C\CCCCCCCC)CCCCOC(=O)C1CCN(C)CC1 [CL15H6, 7-hydroxy-7-(4-((1-methylpiperidine-4-carbonyl)oxy)butyl)tridecane-1,13-diyl dioleate]
- Average particle size [3, 4]: 135.72 nm
- Encapsulation efficiency [3, 4]: 66.12%
- PDI [3, 4]: 0.280
- Zeta potential [3, 4]: −6.81 mV
- Average particle size [3, 5]: 72.5 nm
- Encapsulation efficiency [3, 5]: 92.33%
- PDI [3, 5]: 0.192
- Zeta potential [3, 5]: −3.75 mV
- Average particle size [3, 6]: 53.45 nm
- Encapsulation efficiency [3, 6]: 94.06%
- PDI [3, 6]: 0.093
- Zeta potential [3, 6]: −3.35 mV
- Average particle size [3, 7]: 57.12 nm
- Encapsulation efficiency [3, 7]: 89.19%
- PDI [3, 7]: 0.169
- Zeta potential [3, 7]: −5.08 mV
- Average particle size [3, 8]: 58.53 nm
- Encapsulation efficiency [3, 8]: 75.55%
- PDI [3, 8]: 0.217
- Zeta potential [3, 8]: −8.2 mV
- mRNA delivery efficiency (median fluorescence intensity of EGFP) [2]: high
- amount of SMO mRNA (ratio to GAPDH mRNA) in liver tissue (SMO mRNA; CL15H6 SMO-siRNA lipid nanoparticles, 0.5 mg/kg iv, N/P ratio 4 among 0.5 to 20): lowest
- amount of SMO mRNA (ratio to GAPDH mRNA) in liver tissue (SMO mRNA; SMO-siRNA lipid nanoparticles, 0.5 mg/kg RNA iv, versus HEPES buffer control): significantly reduced

SMILES: CCCCCCCCC(CCCCCC)C(=O)OCCCCCCC(O)(CCCCCCOC(=O)C(CCCCCC)CCCCCCCC)CCCCN(CCC)CCC (stereo not shown) [CL4F6]
- Apparent pKa [1]: 6.00

SMILES: CCCCCCCCC(CCCCCC)C(=O)OCCCCCCC(O)(CCCCCCOC(=O)C(CCCCCC)CCCCCCCC)CCCCOC(=O)C1CCN(C)CC1 (stereo not shown) [CL15F6, 7-hydroxy-7-(4-((1-methylpiperidine-4-carbonyl)oxy)butyl)tridecane-1,13-diyl bis(2-hexyldecanoate)]
- mRNA delivery efficiency (median fluorescence intensity of EGFP) [2]: high
